pIC50: −log10 of the molar value. Read-outs that look alike come from different tables or passages of the source.
Experiments:
[1] = tested on: ICR mice; experiment: Toxicity test: 28-day repeated administration in mice, histopathological examination of liver and kidney; details: intragastric gavage 200 mg/kg once daily for 28 consecutive days, 8 mice per group
Procedure: The toxicity of each compound was evaluated following 28-day repeated administration in mice.
Method: ICR mice that passed quarantine were selected, with equal numbers of males and females. The mice were randomly grouped based on body weight and sex, with 8 mice per group. The test compounds included the compounds of the present disclosure and a positive drug Verinurad. The test compounds were administered to the animals via intragastric gavage at a dosage of 200 mg/kg, once daily for 28 consecutive days. Detailed clinical observations were performed after each administration, with at least 2 h observation following the first administration or upon detection of abnormalities. In addition, cage-side observations were conducted once daily in the afternoon. Observations included clinical signs (animal appearance, behavior, diet, response to stimuli, secretions and excretions) and mortality (time of death or time of discovery of death, pre-mortem signs, etc.). In addition, the symptoms of animals, and the onset, severity, and duration of any observed clinical symptoms of animals were recorded. On Day 28 of administration, the mice were euthanized immediately after blood collection was completed and subjected to necropsy. Livers and left kidneys were collected for paraffin embedding, sectioning and hematoxylin-eosin (HE) staining, followed by histopathological examination to observe tissue lesions. Special attention was paid to the degeneration and inflammatory changes in glomeruli and renal tubules, as well as the presence of urea crystals. The animals euthanized due to found moribund or the animals dead during the experiment were subjected to necropsy promptly.

[2] = molecular target: T1, human urate transporter 1 (hURAT1) (Homo sapiens, UniProt Q96S37); experiment: Inhibitory activity against urate transporter URAT1 (14C-uric acid uptake in Flp-In-T-REx-293-hURAT1 cells); format: cell-based
T1 construct: host or cells: Flp-In-T-REx-293 (HEK293-derived), doxycycline-induced
T1 sequence (Q96S37 1-553): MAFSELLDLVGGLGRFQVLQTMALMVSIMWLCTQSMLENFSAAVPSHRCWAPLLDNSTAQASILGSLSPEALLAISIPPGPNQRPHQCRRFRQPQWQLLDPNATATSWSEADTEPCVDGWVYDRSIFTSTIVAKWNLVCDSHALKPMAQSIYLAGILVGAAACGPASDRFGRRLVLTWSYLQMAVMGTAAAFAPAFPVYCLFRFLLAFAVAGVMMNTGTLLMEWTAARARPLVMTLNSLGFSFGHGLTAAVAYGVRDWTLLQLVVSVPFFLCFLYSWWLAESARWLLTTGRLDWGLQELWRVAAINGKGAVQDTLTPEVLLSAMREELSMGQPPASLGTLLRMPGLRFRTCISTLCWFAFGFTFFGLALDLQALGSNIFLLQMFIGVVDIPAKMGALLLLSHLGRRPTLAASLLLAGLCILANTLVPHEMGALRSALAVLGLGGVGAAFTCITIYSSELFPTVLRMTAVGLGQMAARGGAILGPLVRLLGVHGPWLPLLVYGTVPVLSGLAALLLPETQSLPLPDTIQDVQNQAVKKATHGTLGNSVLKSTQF
Procedure: Inhibitory activity of each compound against urate transporter URAT1 was tested. Compounds: the compounds of the present disclosure were prepared according to the methods in examples; Verinurad was purchased commercially; and CDER167 was prepared according to the method described in the literature (doi: 10.1038/s41401-021-00640-5). Cells: Flp-In-T-REx-293-hURAT1 cells capable of expressing human urate transporter 1 (hURAT1), were purchased from Pharmaron Beijing Co., Ltd., China or can be generated (e.g., by transfecting hURAT1 genes into commercially available Flp-In-T-REx-293 cells according to the method described in the literature doi: 10.1124/dmd.106.012187, and the expression of the hURAT1 genes can be verified by methods such as Western blotting). [drawing 76] The Flp-In-T-REx-293-hURAT1 cells were cultured in a Dulbecco's Modified Eagle Medium (DMEM) in 75 cm^2 flasks under 5% CO2 and 37°C, and passaged every two days. […] The cells were resuspended in the DMEM and then counted, and subsequently prepared into a cell suspension with a proper density. The cells were seeded into a 96-well plate and cultured in a 37°C and 5% CO2 incubator for 24 h. The culture medium was removed, and DMEM containing 200 ng/mL doxycycline was added. The cells were then placed back into the 37°C and 5% CO2 incubator and cultured for 18 h. The test compounds were serially diluted 3-fold in DMSO starting from 10 mmol/L to prepare 10 stock solutions at varying concentrations. A buffer solution was prepared, which contained 125 mmol/L sodium gluconate, 4.8 mmol/L potassium gluconate, 5.6 mmol/L glucose, 1.2 mmol/L potassium dihydrogen phosphate, 1.2 mmol/L magnesium sulfate, 1.3 mmol/L calcium gluconate and 25 mmol/L HEPES (pH = 7.4). 1.2 µL of each test compound stock solution was mixed with 119 µL of buffer to form an assay buffer. After induction for 16 h, the culture medium was removed, and the cells were washed with a prewarmed buffer and incubated for 10 min at 37°C. The buffer was then removed, and an assay buffer containing 50 µmol/L ^14C-uric acid and the test compound was added to the cells, and then the cells were incubated at 37°C for 5 min. The buffer was removed, the cells were washed three times with a precool buffer. Subsequently, 100 mmol/L NaOH was added to lyse the cells for 20 min. The lysate was transferred to a 96-well plate, and then 200 µL of UltimaGold XR scintillation cocktail was added, and radioactivity was measured using a MicroBeta^2 (PerkinElmer). The half-maximal inhibitory concentration (IC50) of each test compound was calculated via GraphPad Prism 8 software using a nonlinear regression fitting equation. The IC50 values were categorized by the following grades: […] Table 2 Inhibitory activity (IC50) of some compounds in the present disclosure against urate transporter

[3] = Flp-In-T-REx-293-hURAT1 cells, 50 µmol/L 14C-uric acid, 5 min at 37°C, read-out: IC50

Structure (SMILES) | hepatic or renal toxicity upon histopathological examination [1] | pIC50 [2] | pIC50 [2, 3] | renal toxicity (number of mice affected) [1] | renal toxicity (percentage of mice affected) [1] [%]
CC(C)(Sc1ccccc1Cn1cc(C#N)c2c(F)cccc21)C(=O)O [Compound F-14] | no hepatic or renal toxicity | 6.30 to 7.00 |  |  | 
CC(C)(Sc1ccc(Cl)cc1Cn1cc(C#N)c2ccccc21)C(=O)O [Compound F-10] | no hepatic or renal toxicity |  | 6.30 to 7.00 |  | 
CC(C)(Sc1ccccc1Cn1cc(C#N)c2ccc(F)cc21)C(=O)O [Compound F-16] | no hepatic or renal toxicity | 6.30 to 7.00 |  |  | 
COc1ccc(SC2(C(=O)O)CCC2)c(Cn2cc(C#N)c3cccnc32)c1 [Compound F-30] | no hepatic or renal toxicity |  | 6.30 to 7.00 |  | 
CC(C)(Sc1ccccc1Cn1cc(C#N)c2ccccc21)C(=O)O [Compound F-02] | no hepatic or renal toxicity | 6.30 to 7.00 |  |  | 
CC(C)(Sc1ccccc1Cn1cc(C#N)c2cnccc21)C(=O)O [Compound F-05] | no hepatic or renal toxicity |  | > 7.00 |  | 
N#Cc1cn(Cc2cc(Cl)ccc2SC2(C(=O)O)CCC2)c2ncccc12 [Compound F-27] | no hepatic or renal toxicity |  | 6.30 to 7.00 |  | 
COc1ccc(SC(C)(C)C(=O)O)c(Cn2cc(C#N)c3ccccc32)c1 [Compound F-13] | no hepatic or renal toxicity |  | 6.30 to 7.00 |  | 
CC(C)(Sc1ccccc1Cn1cc(C#N)c2cccc(F)c21)C(=O)O [Compound F-17] | no hepatic or renal toxicity | 6.30 to 7.00 |  |  | 
CC(C)(Sc1ccccc1Cn1cc(C#N)c2cccnc21)C(=O)O [Compound F-07] | no hepatic or renal toxicity | > 7.00 |  |  | 
CC(C)(Sc1ccccc1Cn1cc(C#N)c2cncnc21)C(=O)O [Compound F-08] | no hepatic or renal toxicity |  | 6.30 to 7.00 |  | 
CC(C)(Sc1ccc(Br)cc1Cn1cc(C#N)c2ccccc21)C(=O)O [Compound F-11] | no hepatic or renal toxicity |  | 6.30 to 7.00 |  | 
N#Cc1cn(Cc2cc(F)ccc2SC2(C(=O)O)CCC2)c2ncccc12 [Compound F-26] | no hepatic or renal toxicity | 6.30 to 7.00 |  |  | 
N#Cc1cn(Cc2ccccc2SC2(C(=O)O)CCC2)c2ncccc12 [Compound F-20] | no hepatic or renal toxicity | 6.30 to 7.00 |  |  | 
CC(C)(Sc1ccncc1Cc1ccc(C#N)c2ccccc12)C(=O)O [CDER167, reference compound] |  |  | < 6.00 |  | 
CC(C)(Sc1ccncc1-c1ccc(C#N)c2ccccc12)C(=O)O [Verinurad, reference compound] |  |  | 6.00 to 6.30 | 3 out of 8 | 37.5
Cc1ccc(SC(C)(C)C(=O)O)c(Cn2cc(C#N)c3ccccc32)c1 [Compound F-12] | no hepatic or renal toxicity | 6.30 to 7.00 |  |  | 
N#Cc1cn(Cc2cc(Br)ccc2SC2(C(=O)O)CCC2)c2ncccc12 [Compound F-28] | no hepatic or renal toxicity |  | 6.30 to 7.00 |  | 
CC(C)(Sc1ccc(F)cc1Cn1cc(C#N)c2ccccc21)C(=O)O [Compound F-09] | no hepatic or renal toxicity | 6.30 to 7.00 |  |  | 
